As a reminder, the IC50 is the point on the concentration scale where inhibition reaches its midpoint. In general, Ki refers to the dissociation constant of the complex between target and ligand, obtained from inhibition or displacement.

Consider five molecules from paper PMC9572942, “The Discovery of Small Allosteric and Active Site Inhibitors of the SARS-CoV-2 Main Protease via Structure-Based Virtual Screening and Biological Evaluation” (Molecules, 2022).

Type in all cases: biochemical
The target of test [1] is T1, SARS-CoV-2 M^pro enzyme (Severe acute respiratory syndrome coronavirus 2, UniProt P0DTD1). In words: Promiscuity tests (pre-incubation, 10-fold enzyme concentration, BSA buffer). The settings on record: 100 μM compound.
Test [2] has as its target T1, SARS-CoV-2 M^pro enzyme. Briefly: Inhibition kinetic study (Lineweaver–Burk, FRET assay). The following applies: for inhibition mechanism: Lineweaver–Burk plot; for Ki: from slope of Lineweaver–Burk curves vs. inhibitor concentration, read-out: Ki.
Test [3] concerns the target T1, SARS-CoV-2 M^pro enzyme. Briefly: FRET-based enzyme assay and IC50 determination. The settings on record: for IC50: 4.6 μM enzyme, HEPES pH 6.5, read-out: IC50; for inhibition at 100 µM: 100 μM compound, in Figure 5; for inhibition at 200 µM: 200 μM compound.
[4] abbreviates: 4.6 μM enzyme, read-out: Inhibition % at 100 μM at 4.6 μM enzyme concentration.
Where [5] appears, read: 46 μM enzyme (10-fold), read-out: Inhibition % at 100 μM at 46 μM enzyme concentration.
Where [6] appears, read: 15 min pre-incubation with enzyme, read-out: Inhibition % at 100 μM with 15 min pre-incubation.
The mark [7] stands for this setting: no BSA, read-out: Inhibition % at 100 μM without BSA in assay buffer.
Where [8] appears, read: pre-incubation test, read-out: Inhibition % at 100 μM without pre-incubation.
[9] abbreviates: read-out: Inhibition % at 100 μM with BSA in assay buffer, BSA in 20 mM HEPES pH 6.5, read-out: Inhibition % at 100 μM with 1g/mL BSA in assay buffer.

Values joined by “and” are separate entries in the source; they are usually repeats but may differ in a detail not shown here. Identical values can stand only once. “Also recorded” adds a separate entry of the source.

As for `O=C(CSc1cnc2ccccc2n1)NC1CCCC1` [CB03], the inhibition at 100 µM in test [1] (setting [4]) was found to be 15%; in test [1] (setting [5]) it was 13.1%; in test [1] (setting [6]), 14.2%; in test [1] (setting [7]) it was 15.5%; in test [1] (setting [8]), 15.1%; in test [1] (setting [9]), 17.3%. The inhibition mechanism result in test [2] is given as “competitive mechanism”.

Regarding `CN(CCCO)c1cc2c3c(cccc3n1)C(=O)c1ccccc1-2` [GR04], in test [3], the IC50 was determined as 346 ± 10 µM. Further, the inhibition at 100 µM in test [3] was 35%; in test [1] (setting [4]), 33.5%; in test [1] (setting [5]) it was 33.9%; in test [1] (setting [6]), 34.3%; in test [1] (setting [7]), 33%; in test [1] (setting [8]) it was 35.4%. Also, the inhibition at 100 µM in test [1] (setting [9]) was 35%. The inhibition at 200 µM in test [3] turned out to be 61%. Besides, the inhibition mechanism result in test [2] is given as “noncompetitive model; also recorded: noncompetitive inhibition mechanism”. Besides, the Ki in test [2] was 298 µM.

For the molecule `COC(=O)C1C(O)=C2C(=CC1C)Nc1ccccc1NC2c1ccc2ccccc2c1` (stereo not shown) [CD06], in test [3], the IC50 is 226 ± 17.5 µM.

Regarding `CCCc1nc2c(o1)OC(N)=C(C#N)[C@H]2c1cccc(O)c1` [GR20], the IC50 in test [3] was 92 µM and 91.8 µM. The inhibition at 100 µM in test [1] (setting [4]) was determined as 48.6%; in test [1] (setting [5]), 48%; in test [1] (setting [7]), 50%; in test [1] (setting [9]) it was 51.4%. Moreover, in test [2], the inhibition mechanism entry is given as “mix inhibition model; also recorded: mixed inhibition mode”. Moreover, the Ki in test [2] is 89 µM.

In test [3], `O=C(NC1CCNCC1)c1[nH]ncc1NC(=O)c1c(Cl)cccc1Cl` [AT7519, reference compound] displayed an inhibition at 100 µM of 8% and an inhibition at 200 µM of 18%.
